Source: paper PMC5365654, “Cyclic Boronates Inhibit All Classes of β-Lactamases” (Antimicrobial Agents and Chemotherapy, 2017)
Like-named read-outs stand apart in the source and are kept apart here.

Columns and labels:
BcII = BcII (Bacillus cereus, UniProt P04190); assay: FC5 fluorogenic metallo-β-lactamase inhibition assay, BcII; format: biochemical; details: FC5 substrate
Description: (§1) To investigate the extent to which cyclic boronates inhibit class C β-lactamases as well as the important class A ESBL and class D carbapenemase targets, we used a fluorogenic assay ([22]) to screen the cyclic boronates, which we have found to inhibit other β-lactamases ([21]), against them. The β-lactamases used for screening included TEM-1 and CTX-M-15 (class A), the metallo-β-lactamase (MBL) from Bacillus cereus (BcII), Verona integron-encoded metallo-β-lactamase 1 (VIM-1) (class B), AmpC from P. aeruginosa (class C), and OXA-23 and OXA-48 (class D), collectively representing all classes of β-lactamase.
(§2) We also screened the cyclic boronates against the model MBL, BcII, and VIM-1 using the FC5-based fluorogenic assay ([22]).
(§3) Inhibition assays were carried out using FC5 as a fluorogenic reporter substrate ([22]). Enzyme concentrations and buffers were the same as those employed in steady-state kinetic studies (see Table S2 in the supplemental material). […] The concentration of FC5 employed was 10 μM for TEM-1 and 5 μM for all other enzymes. […] Data at 0 min of incubation were obtained by addition of enzyme to a premixed solution of inhibitor and substrate. Residual enzyme activity was determined for a range of inhibitor concentrations. Nonlinear regression fitting of IC50 curves was carried out using a three-parameter dose-response curve in GraphPad Prism. Errors in IC50 are expressed as [σ(log IC50)/log IC50)] × IC50.
(§4) 45 Steady-state kinetics studies used a Pherastar FS microplate reader with UV-STAR® 96-well,
(§5) 47 black, µclear® plates (Greiner Bio-One) for FC5 (1). […]
(§6) 51 1 µM ZnSO4, 0.01% Triton X-100 for MBL assays. Reaction progress was monitored at 298 K
(§7) 53 intensity (λex = 380 nm, λem = 480 nm) for FC5 (1). Suitable enzyme concentrations for
(§8) 54 kinetic analysis were determined by monitoring changes in absorbance/fluorescence for
(§9) 55 enzyme concentrations between 20 nM and 20 pM. […]

VIM-1 = target: T1, VIM-1 (Pseudomonas aeruginosa, UniProt A0A0F7KYQ8); assay: FC5 fluorogenic metallo-β-lactamase inhibition assay, VIM-1; format: biochemical; details: pH 7.5, FC5 substrate, read-out: IC50, μM (mean ± SD) for VIM-1, pH 7.5
T1 construct: His tag (3C-cleavable) (C, cleaved yes); made in house
Description: as §1, §2, §3, §4, §5, §6, §7, §8, §9

AmpC = target: T2, AmpC (Pseudomonas aeruginosa, UniProt P24735); format: biochemical; details: AmpC-catalysed hydrolysis of the substrate
T2 construct: hexahistidine (pOPINF, 3C-cleavable) (N, cleaved yes); made in house; host or cells: E. coli BL21(DE3)
Method: as §4
(§10) 47 black, µclear® plates (Greiner Bio-One) for FC5 (1). Buffers employed were 100 mM
(§11) 48 phosphate buffer pH 7.5, 0.01% (v/v) Triton X-100 for TEM-1, CTX-M-15 and AmpC, 100 mM
(§12) 49 phosphate buffer pH 7.5, 50 mM sodium bicarbonate, 0.01% Triton X-100 for OXA-23 and
as §6, §7, §8
(§13) 55 enzyme concentrations between 20 nM and 20 pM.
(§14) Kinetic constants were determined using the initial rate of hydrolysis with the
(§15) 57 reaction initiated through the addition of enzyme to pre-prepared substrate concentrations.
(§16) 58 Substrate concentrations ranged between 400 µM and 0.4 µM. The Michaelis-Menten
(§17) 59 equation was fitted to data by non-linear regression using GraphPad Prism software to
(§18) 60 calculate the Michaelis-Menten constant and the limiting rate (2).

OXA-23 [1] = target: T3, OXA-23 (Acinetobacter baumannii, UniProt Q9L4P2); format: biochemical; details: OXA-23-catalysed hydrolysis of the substrate
T3 construct: hexahistidine (pOPINF, 3C-cleavable) (N, cleaved yes); made in house; host or cells: E. coli BL21(DE3)
Method: as §4, §10, §11, §12, §6, §7, §8, §13, §14, §15, §16, §17, §18

OXA-48 [2] = target: T4, OXA-48 (Klebsiella pneumoniae, UniProt Q6XEC0); format: biochemical; details: OXA-48-catalysed hydrolysis of the substrate
T4 construct: hexahistidine (pOPINF, 3C-cleavable) (N, cleaved yes); made in house; host or cells: E. coli BL21(DE3)
Method: as §4, §10, §11, §12, §6, §7, §8, §13, §14, §15, §16, §17, §18

CTX-M-15 [3] = target: T5, CTX-M-15 (Escherichia coli, UniProt Q9EXV5); format: biochemical, E. coli; details: CTX-M-15-catalysed hydrolysis of the substrate
T5 construct: hexahistidine (pOPINF, 3C-cleavable) (N, cleaved yes); made in house; host or cells: E. coli BL21(DE3)
Method: as §4, §10, §11, §12, §6, §7, §8, §13, §14, §15, §16, §17, §18

AmpC from P. aeruginosa = target: T6, AmpC from P. aeruginosa (Pseudomonas aeruginosa, UniProt P24735); assay: FC5 fluorogenic β-lactamase inhibition assay, AmpC; format: biochemical; details: IC50, nM (mean ± SD) for AmpC, FC5 substrate
T6 construct: hexahistidine (pOPINF, 3C-cleavable) (N, cleaved yes); made in house; host or cells: E. coli BL21(DE3)
Description: as §1, §3, §4, §10, §11, §12, §6, §7, §8, §13, §14, §15, §16, §17, §18

CTX-M-15 [4] = target: T5, CTX-M-15; assay: FC5 fluorogenic β-lactamase inhibition assay, CTX-M-15; format: biochemical; details: FC5 substrate
Description: as §1, §3, §4, §10, §11, §12, §6, §7, §8, §13, §14, §15, §16, §17, §18

OXA-48 [5] = target: T4, OXA-48; assay: FC5 fluorogenic β-lactamase inhibition assay, OXA-48; format: biochemical
Description: as §1, §3, §4, §10, §11, §12, §6, §7, §8, §13, §14, §15, §16, §17, §18

OXA-23 [6] = target: T3, OXA-23; assay: FC5 fluorogenic β-lactamase inhibition assay, OXA-23; format: biochemical
Description: as §1, §3, §4, §10, §11, §12, §6, §7, §8, §13, §14, §15, §16, §17, §18

T4 sequence (Q6XEC0 23-265 limits assumed): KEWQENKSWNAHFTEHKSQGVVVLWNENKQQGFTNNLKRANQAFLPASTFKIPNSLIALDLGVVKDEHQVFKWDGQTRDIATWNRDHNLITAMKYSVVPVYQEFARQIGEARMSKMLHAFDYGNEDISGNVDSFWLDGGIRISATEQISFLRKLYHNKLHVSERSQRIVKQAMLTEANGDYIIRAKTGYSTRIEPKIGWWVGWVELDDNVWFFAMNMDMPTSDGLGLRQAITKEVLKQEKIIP
T6 sequence (P24735 27-397): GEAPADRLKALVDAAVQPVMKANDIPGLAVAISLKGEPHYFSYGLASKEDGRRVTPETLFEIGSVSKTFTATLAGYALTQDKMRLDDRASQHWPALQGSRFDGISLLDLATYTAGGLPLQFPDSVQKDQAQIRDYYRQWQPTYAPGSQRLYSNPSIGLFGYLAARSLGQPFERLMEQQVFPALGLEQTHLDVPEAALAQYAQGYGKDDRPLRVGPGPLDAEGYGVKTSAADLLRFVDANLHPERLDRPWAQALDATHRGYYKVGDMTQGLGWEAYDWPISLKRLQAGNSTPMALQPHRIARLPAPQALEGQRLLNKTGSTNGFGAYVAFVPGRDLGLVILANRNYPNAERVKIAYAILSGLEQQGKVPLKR
T5 sequence (Q9EXV5 entry or part of it): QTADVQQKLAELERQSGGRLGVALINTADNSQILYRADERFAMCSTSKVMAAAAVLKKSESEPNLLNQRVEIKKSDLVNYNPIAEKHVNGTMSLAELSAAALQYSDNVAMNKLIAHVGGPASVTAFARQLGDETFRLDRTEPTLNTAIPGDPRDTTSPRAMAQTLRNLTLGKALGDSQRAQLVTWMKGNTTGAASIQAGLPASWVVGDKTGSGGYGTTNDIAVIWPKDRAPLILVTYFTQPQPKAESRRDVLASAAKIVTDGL
Chain of BcII (P04190 31-257): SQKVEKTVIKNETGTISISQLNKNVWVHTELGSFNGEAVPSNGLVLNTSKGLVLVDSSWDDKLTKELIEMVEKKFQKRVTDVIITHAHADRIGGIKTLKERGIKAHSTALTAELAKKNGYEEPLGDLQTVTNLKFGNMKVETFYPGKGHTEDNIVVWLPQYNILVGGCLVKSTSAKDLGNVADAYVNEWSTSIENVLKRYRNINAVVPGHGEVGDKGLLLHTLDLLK
T3 sequence (Q9L4P2 18-273): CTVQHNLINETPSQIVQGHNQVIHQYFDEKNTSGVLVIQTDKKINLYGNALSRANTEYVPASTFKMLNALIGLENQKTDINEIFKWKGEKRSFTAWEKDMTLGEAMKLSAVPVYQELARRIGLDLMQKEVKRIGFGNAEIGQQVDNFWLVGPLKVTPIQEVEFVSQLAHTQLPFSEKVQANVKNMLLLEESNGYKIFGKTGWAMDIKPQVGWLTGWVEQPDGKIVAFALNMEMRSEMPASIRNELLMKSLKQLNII
T2 sequence (P24735 27-397): as the sequence (P24735 27-397) above

## O=C(O)C(S)c1ccccc1 (racemic) [(±)-Thiomandelic acid, thiomandelic acid]
BcII; pH 6.5, preincubation 0 min, read-out: IC50, μM (mean ± SD) for BcII, pH 6.5
  IC50: 0.27 ± 0.06 µM
BcII; pH 6.5, preincubation 10 min, read-out: IC50, μM (mean ± SD) for BcII, pH 6.5
  IC50: 0.9 ± 0.1 µM
BcII; pH 6.5, preincubation 30 min, read-out: IC50, μM (mean ± SD) for BcII, pH 6.5
  IC50: 0.5 ± 0.1 µM
BcII; pH 6.5, preincubation 60 min, read-out: IC50, μM (mean ± SD) for BcII, pH 6.5
  IC50: 2 ± 1 µM
BcII; pH 6.5, preincubation 360 min, read-out: IC50, μM (mean ± SD) for BcII, pH 6.5
  IC50: 2 ± 1 µM
BcII; pH 7.5, preincubation 0 min, read-out: IC50, μM (mean ± SD) for BcII, pH 7.5
  IC50: 0.3 ± 0.03 µM
BcII; pH 7.5, preincubation 10 min, read-out: IC50, μM (mean ± SD) for BcII, pH 7.5
  IC50: 0.39 ± 0.05 µM
BcII; pH 7.5, preincubation 30 min, read-out: IC50, μM (mean ± SD) for BcII, pH 7.5
  IC50: 0.33 ± 0.04 µM
BcII; pH 7.5, preincubation 60 min, read-out: IC50, μM (mean ± SD) for BcII, pH 7.5
  IC50: 0.5 ± 0.2 µM
BcII; pH 7.5, preincubation 360 min, read-out: IC50, μM (mean ± SD) for BcII, pH 7.5
  IC50: 2 ± 1 µM
VIM-1; preincubation 0 min
  IC50: 0.38 ± 0.03 µM
VIM-1; preincubation 10 min
  IC50: 0.45 ± 0.02 µM
VIM-1; preincubation 30 min
  IC50: 0.8 ± 0.9 µM
VIM-1; preincubation 60 min
  IC50: 1.4 ± 0.9 µM
VIM-1; preincubation 360 min
  IC50: 2 ± 1 µM

## O=C(Cc1ccccc1)N[C@@H]1C(=O)N2C(C(=O)O)=C(COc3ccc4ccc(=O)oc4c3)CS(=O)(=O)[C@H]12 [FC5]
AmpC
  Km: 600 ± 220 µM
  kcat: 500 ± 160 s⁻¹
OXA-23 [1]
  Km: 500 ± 130 µM
  kcat: 38 ± 7 s⁻¹
OXA-48 [2]
  Km: 420 ± 50 µM
  kcat: 28 ± 2 s⁻¹
CTX-M-15 [3]
  Km: 170 ± 20 µM
  kcat: 1100 ± 100 s⁻¹

## CC1(C)[C@H](C(=O)O)N2C(=O)C[C@H]2S1(=O)=O [Sulbactam, sulbactam]
AmpC from P. aeruginosa; preincubation 0 min
  IC50: > 200000 nM
AmpC from P. aeruginosa; preincubation 10 min
  IC50: 42000 nM
AmpC from P. aeruginosa; preincubation 30 min
  IC50: 8600 nM
AmpC from P. aeruginosa; preincubation 60 min
  IC50: 4400 nM
AmpC from P. aeruginosa; preincubation 360 min
  IC50: 1000 nM
CTX-M-15 [4]; IC50, nM (mean ± SD) for CTX-M-15, preincubation 0 min
  IC50: 44 ± 1 nM
CTX-M-15 [4]; IC50, nM (mean ± SD) for CTX-M-15, preincubation 10 min
  IC50: 29 ± 1 nM
CTX-M-15 [4]; IC50, nM (mean ± SD) for CTX-M-15, preincubation 30 min
  IC50: 28 ± 7 nM
CTX-M-15 [4]; IC50, nM (mean ± SD) for CTX-M-15, preincubation 60 min
  IC50: 32 ± 0.3 nM
CTX-M-15 [4]; IC50, nM (mean ± SD) for CTX-M-15, preincubation 360 min
  IC50: 16.6 ± 0.1 nM
OXA-48 [5]
  IC50: > 200000 nM
OXA-48 [5]; read-out: IC50, nM (mean ± SD) for OXA-48, preincubation 10 min, FC5 substrate
  IC50: > 200000 nM
OXA-48 [5]; read-out: IC50, nM (mean ± SD) for OXA-48, preincubation 30 min, FC5 substrate
  IC50: > 200000 nM
OXA-48 [5]; read-out: IC50, nM (mean ± SD) for OXA-48, preincubation 60 min, FC5 substrate
  IC50: > 200000 nM
OXA-48 [5]; read-out: IC50, nM (mean ± SD) for OXA-48, preincubation 360 min, FC5 substrate
  IC50: > 200000 nM
OXA-23 [6]
  IC50: > 200000 nM
OXA-23 [6]; read-out: IC50, nM (mean ± SD) for OXA-23, preincubation 10 min, FC5 substrate
  IC50: > 200000 nM
OXA-23 [6]; read-out: IC50, nM (mean ± SD) for OXA-23, preincubation 30 min, FC5 substrate
  IC50: > 200000 nM
OXA-23 [6]; read-out: IC50, nM (mean ± SD) for OXA-23, preincubation 60 min, FC5 substrate
  IC50: > 200000 nM
OXA-23 [6]; read-out: IC50, nM (mean ± SD) for OXA-23, preincubation 360 min, FC5 substrate
  IC50: > 200000 nM
